{
  "source": "paper PMC6278353",
  "about": "(Molecules, 2018)",
  "key": {"[1]": {"assay": "Stability of vancomycin in serum under various storage conditions (QC samples, HPLC-Q-trap-MS)", "assay_type": "in vitro ADME, human", "details": "serum at 4 °C and 25 °C for 24 h, after three freezing and thawing cycles and stored at −80 °C for 30 days; three concentrations", "procedure": "The IS working solution was diluted with deionized water to give a final concentration of 100 ng/mL. Quality control (QC) samples were prepared in 100 μL of blank serum by adding 10 μL of serially diluted solutions of the substance to determine the limit of quantification, as well as 2 ng/mL (low), 20 ng/mL (medium), and 400 ng/mL (high) concentrations. The L, M, and H of QCs were analyzed at least in duplicate. All solutions were stored at −20 °C and brought to room temperature before use.\nThe chromatographic separation was performed on an Agilent ZORBAX SB-C18 (4.6 × 150 mm, 5 μm). The mobile phase consisted of water (containing 0.1% formic acid, v/v) and acetonitrile (containing 0.1% formic acid, v/v) and the flow rate was set at 0.5 mL/min. An isocratic elution was performed with 30% of acetonitrile. The total run time was 8 min. The injection volume was 10 μL. […]\nThe pretreatment followed for all samples was 10 μL of the IS was added to 20 μL of the standard and unknown serum samples and mixed vigorously for 20 s. […] Two-hundred microliters of mobile phase was added to the resulting residue and vortexed for 1 min; 100 μL was analyzed.\nFor the bench-top stability during handing, QC samples were prepared and kept room temperature (25 °C) for 6 h. […] Stability of sample in autosampler was determined by analyzing the targets after kept in an autosampler at room temperature for 12 h."}, "[2]": {"assay": "Steady-state trough serum vancomycin concentration in DFI patients and nondiabetic patients with pneumonia", "assay_type": "in vivo, human", "details": "1g q12h; for Trough Concentration of vancomycin: mean ± SD, SD", "description": "Clinical samples were collected at Air Force General Hospital, PLA. […] Human blank serum was obtained from healthy blood donors not using vancomycin (Air Force General Hospital, PLA.). The study was approved by the hospital ethics committee. Every patient was given a sufficient description of the study and signed an informed consent prior to the study.\nThe pretreatment followed for all samples was 10 μL of the IS was added to 20 μL of the standard and unknown serum samples and mixed vigorously for 20 s. Five-hundred microliters of acetonitrile was added, vortexed for 1 min, and centrifuged for 6 min at 12,000 rpm. After transferring the supernatant to a fresh centrifuge tube, it was evaporated to dryness under a stream of nitrogen at room temperature. Two-hundred microliters of mobile phase was added to the resulting residue and vortexed for 1 min; 100 μL was analyzed.\nFifty diabetes mellitus type 2 patients with known or suspected Gram-positive DFI (Wagner score grade 3/4, equivalent to Texas classification of at least B3), and 50 nondiabetic patients with pneumonia requiring antibiotic therapy from 2014 to 2016 were included. […] The estimated ClCr was calculated from serum creatinine using the Cockcroft-Gault formula [29]. CrCl = (140-age in years) × body weight in kg/(serum creatinine in […]) × 0.85 for females). Statistical analysis was performed by SPSS 25.0."}},
  "data": [
    {"smiles": "CN[C@H](CC(C)C)C(=O)N[C@H]1C(=O)N[C@@H](CC(N)=O)C(=O)N[C@H]2C(=O)N[C@H]3C(=O)N[C@H](C(=O)N[C@H](C(=O)O)c4cc(O)cc(O)c4-c4cc3ccc4O)[C@H](O)c3ccc(c(Cl)c3)Oc3cc2cc(c3O[C@@H]2O[C@H](CO)[C@@H](O)[C@H](O)[C@H]2O[C@H]2C[C@](C)(N)[C@H](O)[C@H](C)O2)Oc2ccc(cc2Cl)[C@H]1O", "note": "[vancomycin, Vancomycin]", "values": [
      {"measurement": "Stability in serum (in words)", "setting": "[1]", "value": "stable"},
      {"measurement": "Trough Concentration of vancomycin", "setting": "[2]; DFI group (n = 50), type 2 diabetes patients", "value": "8.20 ± 2.83", "unit": "µg/mL"},
      {"measurement": "Trough concentration of vancomycin, range", "setting": "[2]; DFI patients (n = 50)", "value": "4.80 to 14.2", "unit": "µg/mL"},
      {"measurement": "Trough Concentration of vancomycin", "setting": "[2]; Nondiabetic group (n = 50), pneumonia patients", "value": "15.8 ± 5.43", "unit": "µg/mL"},
      {"measurement": "Trough concentration of vancomycin, range", "setting": "[2]; nondiabetic patients (n = 50)", "value": "8.60 to 19.5", "unit": "µg/mL"}
    ]}
  ]
}
